Earlier results as cited in US11564931B2, “Low benzalkonium chloride bimatoprost ophthalmic compositions with effective penetration and preservation properties” (Somerset Therapeutics LLC, priority 2019, dated 2023).

Settings: patients starting on monotherapy; Covert D et al. 2006
In the case of `CCNC(=O)CCC/C=C\C[C@@H]1[C@@H](/C=C/[C@@H](O)CCc2ccccc2)[C@H](O)C[C@@H]1O` [bimatoprost, (Z)-7-[(1R, 2R, 3R, 5S)-3,5-Dihydroxy-2-[(1E, 3S)-3-hydroxy-5-phenyl-1-pentenyl]cyclopentyl]-5-N-ethylheptenamide], the “Rate of adjunctive medication use” value is listed as 23.2%. For `CC(C)OC(=O)CCC/C=C\C[C@@H]1[C@@H](CC[C@@H](O)CCc2ccccc2)[C@H](O)C[C@@H]1O` [latanoprost], the “Rate of adjunctive medication use” value is listed as 30.2%. In the case of `CC(C)OC(=O)CCC/C=C\C[C@@H]1[C@@H](/C=C/[C@@H](O)COc2cccc(C(F)(F)F)c2)[C@H](O)C[C@@H]1O` [travoprost], the “Rate of adjunctive medication use” value is given as 22.5%.
